This is an account of results in publication PMC12509328, “Human Internal Exposures of Bisphenol A and Six Data-Poor Analogs Predicted by Physiologically Based Kinetic Models with Multimodal Parametrization” (Environmental Science & Technology, 2025).

For orientation: Km means the concentration of substrate that gives half-maximal velocity. In general, Cmax refers to the maximum level reached in the sampled fluid or tissue.

The test system of series [1] is rat liver S9 (Sprague-Dawley, male). Put plainly: Glucuronidation kinetics in rat liver S9. The procedure:
(§1) The glucuronidation kinetics of BPA, BPB, BPE, BPF, BPAF, and BPM were determined as described in the Supporting Information (Tables S6 and S7). Outliers were excluded using the Nalimov test.
(§2) Supplementary information on glucuronidation kinetics measurement
(§3) BPA, BPB, BPE and BPM were incubated with Corning® UltraPool™ Human Liver S9 in a buffer containing UDPGA. The S9 reagent (20 mg protein/mL) was aliquoted and stored at -80° C until use. BPAF and BPF were incubated similarly with rat liver S9 (Sprague-Dawley, male, 0.1 mg/mL S9 protein). For each assay, an S9 aliquot was thawed on ice, and a reaction master mix was prepared with 0.1 mg S9 protein/mL in either 0.1 M (for BPA, BPB, BPAF, and BPF) or […] (for BPE and BPM) Tris-HCl, along with 10 mM UDPGA in 50 mM Tris-HCl (pH 7.4), 25 µg/mL alamethicin, and 10 mM magnesium chloride. Negative controls using 0.1 M Tris-HCl without UDPGA were included. Each reaction solution (100 µL) was pre-incubated for 5 min at 37° C with 350 rpm shaking. To this solution was added bisphenol solutions (0 to 20 mM) in DMSO in a ratio of 1:100 to achieve final bisphenol concentrations of 0 to 200 µM and 1% (v/v) […]
(§4) glucuronidation reaction was stopped by adding cold methanol (160 μL) and samples were kept at -20 °C for 1 h to precipitate proteins. The resulting mixture was centrifuged (10 min, 4 °C, 15,000 rcf). Supernatants were analyzed using High-performance liquid chromatography (HPLC) with diode array detector (DAD). Similar experiments were conducted for BPA, BPB, BPE, and BPM with human small intestinal S9 mix (0.025 to 0.25 mg/mL). Bisphenol concentrations ranged from 5 to 120 µM, and incubation times from 15 to 120 min. […]
(§5) series HPLC system with a Waters XBridge BEH130 C18 column (4.6 × 150 mm, 3.5 μm particle size) for separation and a DAD set to a detection wavelength of λ = 280 nm. A gradient elution was used with water containing 0.1% formic acid as eluent A and acetonitrile with 0.1% formic acid as eluent B. The initial condition of 15% eluent B was increased to 65% eluent B over 20 min, and then to 90% eluent B in the next 5 min. […]
(§6) and their glucuronides are provided in Supplementary Table S7. Calibration curves were set from concentrations ranging from 1 to 100 µM.

The subject of a further series is Human Liver S9. Put plainly: Glucuronidation kinetics in human liver S9. The settings on record: human liver S9 fractions; for Vmax hepatic glucuronidation / Km: GraphPad Prism fitting; for Ksi hepatic glucuronidation: substrate inhibition fit; for Km: read-out: Km hepatic glucuronidation. The procedure:
as §1, §2
(§7) BPA, BPB, BPE and BPM were incubated with Corning® UltraPool™ Human Liver S9 in a buffer […]
(§8) containing UDPGA. […]
as §3, with “S9” for “BPA, BPB, BPE and BPM were incubated with Corning® UltraPool™ Human Liver S9 in a buffer containing UDPGA. The S9 reagent (20 mg protein/mL) was aliquoted and stored at -80° C until use. BPAF and BPF were incubated similarly with rat liver S9 (Sprague-Dawley, male, 0.1 mg/mL S9”
(§9) glucuronidation reaction was stopped by adding cold methanol (160 μL) and samples were kept at -20 °C for 1 h to precipitate proteins. The resulting mixture was centrifuged (10 min, 4 °C, 15,000 rcf). Supernatants were analyzed using High-performance liquid chromatography (HPLC) with diode array detector (DAD). […]
(§10) A gradient elution […]
(§11) was used with water containing 0.1% formic acid as eluent A and acetonitrile with 0.1% formic acid as eluent B. The initial condition of 15% eluent B was increased to 65% eluent B over 20 min, and then to 90% eluent B in the next 5 min. […]
as §6

Series [2] has as its system human small intestinal S9. Put plainly: Glucuronidation in human small intestinal S9. In kind it is in vitro ADME. As to the method:
Supplementary information on glucuronidation kinetics measurement […]
µg/mL alamethicin, and 10 mM magnesium chloride. Negative controls using 0.1 M Tris-HCl […]
without UDPGA were included.
37° C with 350 rpm shaking. […]
at -20 °C for 1 h to precipitate proteins. The resulting mixture was centrifuged (10 min, 4 °C, 15,000 rcf). Supernatants were analyzed using High-performance liquid chromatography (HPLC) with diode array detector (DAD). Similar experiments were conducted for BPA, BPB, BPE, and […]
Bisphenol concentrations ranged
The retention times for the various bisphenols […]
as §6

The nature of series [3]: Present human PBK model, model evaluation (scenarios 3 and 4). The settings on record: for predicted blood C max, times higher than in vivo observed / predicted blood C max as percent of the observed value: average; for predicted AUC, times higher than observed: present model vs Teeguarden et al. (BPA dosing); for predicted blood C max as percent of the observed value: present model vs Teeguarden et al. An excerpt: Several exposure scenarios were defined for parameter gathering, model evaluation, and internal exposure assessment (Table ). In scenarios 1 and 2, a rat PBK model was used to parametrize enterohepatic circulation (EHC) rates for application in human PBK models. […] Models were developed for four human physiologies: male (“man”) and female adults (“woman”), male “child”, and male “toddler” (Table S2). These models were selected based on available physiological data for key organs (thyroid, breasts, and testes), related to ED and the detected bisphenol exposure level. The repeated dose scheme from Karrer et al. was reproduced (scenarios 9 to 12) to model chronic exposure via three meals a day.
When not individually compartmentalized, organs were categorized as either slowly perfused tissues or rapidly perfused tissues and combined. Compartments related to the thyroid, testes, and breasts (depending on sex) were included in human but not rat models. Code was compiled in Berkeley Madonna 10 and Python (see Supporting Information and GitLab: https://gitlab.ethz.ch/eth_toxlab/pbk_model_bisphenol_analogs).
These PBK models were parametrized using a multimodal framework that integrates new approach methodology tools into a reproducible chemical-family wide workflow. This framework combines QSARs, in vitro experiments, and cross-species extrapolation to parametrize PBK models for a family of compounds, some of which were considered data-poor (Figure ). […] Organism-based parameters were tailored to account for species, sex, and age when possible (Figure and Table S2). − Parameters based on both the organism and chemical were partition coefficients, intestinal uptake, EHC rate, and glucuronidation kinetics (Figure ).
To address parameter uncertainty in concentrations that were predicted with human PBK models, 10,000 Monte Carlo (MC) simulations were performed. Each sensitive parameter was resampled according to probability distributions from the literature (Table S8). ,− To ensure physiological plausibility, EHC rates were constrained between 0 and 1, and the sum of all relative organ weights and the sum of all relative organ blood flows were kept constant. MC simulation outcomes were analyzed by comparing the first quartile, the median, and the third quartile values of concentrations per time point.

Details of series [4]: method as in Oh et al. As to conditions: blood, in vivo, 4 men and 3 women, ref Oh et al., cited from earlier work; for Cmax: 8.75 μg/kg bw d4-BPS in a chocolate cookie; for AUC / t max: 8.75 μg/kg bw d4-BPS.
Series [5] is described as follows: Glucuronidation kinetics in rat liver S9. As to conditions: male, Sprague-Dawley, rat, rat liver S9, pH 7.4. The procedure: as §1, §2, §3, §4, §5, §6
A short description of series [6]: Glucuronidation kinetics in human liver S9. As to conditions: human. The procedure:
as §1, §2, §7, §8
as §3, with “S9” for “BPA, BPB, BPE and BPM were incubated with Corning® UltraPool™ Human Liver S9 in a buffer containing UDPGA. The S9 reagent (20 mg protein/mL) was aliquoted and stored at -80° C until use. BPAF and BPF were incubated similarly with rat liver S9 (Sprague-Dawley, male, 0.1 mg/mL S9”
as §9, §10, §11, §6

On the set-up of series [7]: method as in Thayer et al. The settings on record: ref Thayer et al., cited from earlier work.
Details of series [8]: method as in Teeguarden et al. As to conditions: ref Teeguarden et al., cited from earlier work.
The conditions of series [9]: ref Yang et al.; cited from earlier work.
The conditions of series [10]: blood; previous model, BPA; ref Karrer et al.; cited from earlier work.
On the set-up of series [11]: method as in Oh et al. As to conditions: blood; previous model, BPS; ref Oh et al.; cited from earlier work.
The mark [12] stands for this setting: rat liver S9 fractions, GraphPad Prism fitting.
Where [13] appears, read: present model vs Oh et al. (BPS dosing).
Where [14] appears, read: blood, in vivo, 10 men, 30 μg/kg bw d6-BPA in soup.

Where two headings read alike, the source gives them in different places. Marks after values point to notes of the source that are not given here.

On to `Oc1ccc(Cc2ccc(O)cc2)cc1` [BPF, Bisphenol F], for which the figures for the Vmax hepatic glucuronidation in series [1] (setting [12]) and in series [1] (rat model code) were 1.17 nmol/min/mg and 1.173 nmol/min/mg, respectively. In addition, in [1] (read-out: Km hepatic glucuronidation, rat liver S9 fractions, GraphPad Prism fitting), the Michaelis constant (Km) amounted to 47.5 µM.
On to `CC(c1ccc(O)cc1)c1ccc(O)cc1` [BPE, Bisphenol E], for which, in the series with Human Liver S9, the Vmax hepatic glucuronidation is 3.42 nmol/min/mg, the Ksi hepatic glucuronidation is reported as 280.6 µM and the Michaelis constant (Km) was determined as 51.3 µM. The “glucuronidation rates in small intestinal S9 fractions” value in series [2] is reported as “negligible”.
As to `O=C(O)[C@H]1O[C@@H](Oc2ccc(S(=O)(=O)c3ccc(O)cc3)cc2)[C@H](O)[C@@H](O)[C@@H]1O` [BPS glucuronide], in series [3] (setting [13]), the “mean predicted AUC, times higher than in vivo” value is “about 2.4 times” and the “predicted blood C max, times higher than in vivo observed” value is listed as 2.8 times. In addition, in [4], the Cmax is 10.5 nM, the AUC is 78.7 (54–103) ^d nM x day and the t max is given as 1.0 (1.0–1.0) ^d h.
As to `Oc1ccc(C(c2ccc(O)cc2)(C(F)(F)F)C(F)(F)F)cc1` [BPAF, Bisphenol AF], the Michaelis constant (Km) in series [5] is 49.7 µM. In addition, the Vmax hepatic glucuronidation in [1] (setting [12]) was determined as 7.10 nmol/min/mg. The molecule further gave a Ksi hepatic glucuronidation in [1] (rat liver S9 fractions, substrate inhibition fit) of 27.63 µM.
For the molecule `CC(C)(c1ccc(O)cc1)c1cccc(C(C)(C)c2ccc(O)cc2)c1` [BPM, Bisphenol M], in the series with Human Liver S9, the Vmax hepatic glucuronidation was 4.89 nmol/min/mg, the Ksi hepatic glucuronidation was determined as 51.75 µM and the Km came out at 20.2 µM. Besides, the “glucuronidation rates in small intestinal S9 fractions” value in series [2] is “negligible”.
In the case of `CC(C)(c1ccc(O)cc1)c1ccc(O)cc1` [BPA, bisphenol A], in [6] (pH 7.4), the Km is 13.1 µM. In the series on Human Liver S9, the Vmax hepatic glucuronidation was 4.06 nmol/min/mg. Further, the “glucuronidation rates in small intestinal S9 fractions” value in series [2] is “negligible”. The urinary excretion in series [7] (at 24 h, range 92–100%) is listed as 98%; in series [8] (at 24 h, range 90–116%) it was 104%. For the same molecule, the cumulative urinary excretion in series [7] (by 48 h) is recorded as 80–110%. Moreover, the “urinary fraction of unconjugated BPA” value in series [7] was 0.029%; in series [8] it was 0.03%. In addition, the “total BPA excreted” value in [7] (within 12 h post exposure, range 86–98%) is on record as 94%. Further, the “predicted AUC, times higher than observed” value in [3] is given as “about 1.5 times”. The “predicted blood C max as percent of the observed value” in series [3] is listed as 63%. The AUC is listed as 2.5 (1.4–5.7) ^a nM x day in [8] (setting [14]) and 4.15 (2.91–5.15) ^c nM x day in series [10]. Besides, the “glucuronidated BPA undergoing EHC” value in series [9] is given as “ten”. For the same molecule, the peak concentration (Cmax) in series [10] was 1.31 nM. For the same molecule, in series [10], the t max is 0.72 (0.67–0.77) ^c h.
As to `CC(C)(c1ccc(O)cc1)c1ccc(O[C@@H]2O[C@H](C(=O)O)[C@@H](O)[C@H](O)[C@H]2O)cc1` [BPA glucuronide], in series [3], the “predicted AUC, times higher than observed” value was “about 1.5 times” and the “predicted blood C max as percent of the observed value” is recorded as 80%. Further, the Cmax in [8] (blood, in vivo, 10 men, 30 μg/kg bw d6-BPA in 355 mL of soup, (range)) is 286 nM. Moreover, in series [8] (setting [14]), the AUC was 680 (571–1′210) ^a nM x day and the t max is given as 1.2 (0.8–2.2) ^a h. In [10], the highest concentration (Cmax) is 610 nM and the t max is 0.94 (0.93–0.97) ^c h.
`CCC(C)(c1ccc(O)cc1)c1ccc(O)cc1` [BPB, Bisphenol B]: in series [6] (human liver S9, pH 7.4), the Km was 12.3 µM. In the series on Human Liver S9, the Vmax hepatic glucuronidation was 5.81 nmol/min/mg and the Ksi hepatic glucuronidation is on record as 21.48 µM. For the same molecule, the “glucuronidation rates in small intestinal S9 fractions” value in series [2] is on record as “negligible”.
With `O=S(=O)(c1ccc(O)cc1)c1ccc(O)cc1` [BPS, Bisphenol S], in series [11], the AUC is 39.8 − ^, ^e nM x day; the peak concentration (Cmax) is 10.1 nM; the t max is given as 0.57 (0.26–0.88) ^e h. In series [3] (setting [13]), the “delay of average predicted t max vs measure” value is reported as 1.7 h and the “predicted blood C max, times higher than in vivo observed” value is recorded as 1.6 times. In addition, in series [4], the Cmax is 8.79 nM; the AUC was 40 − , ^d nM x day; the t max was 0.5 (0.25–0.5) ^d h.
